According to patent US10017481B2, “Conformationally constrained, fully synthetic macrocyclic compounds” (POLYPHOR AG, priority 2012, dated 2018):

What was measured:
[1] = biological target: T1, Thyrotropin-releasing hormone receptor (TRH receptor) (Homo sapiens, UniProt P34981); test: Ca2+ flux (FLIPR) assay, TRH receptor, agonist/antagonist mode; format: cell-based; details: antagonist mode
T1 construct: expressed in transfected cells; host or cells: Ca2+ optimized hematopoietic cell lines (rat)
T1 sequence (P34981 1-398): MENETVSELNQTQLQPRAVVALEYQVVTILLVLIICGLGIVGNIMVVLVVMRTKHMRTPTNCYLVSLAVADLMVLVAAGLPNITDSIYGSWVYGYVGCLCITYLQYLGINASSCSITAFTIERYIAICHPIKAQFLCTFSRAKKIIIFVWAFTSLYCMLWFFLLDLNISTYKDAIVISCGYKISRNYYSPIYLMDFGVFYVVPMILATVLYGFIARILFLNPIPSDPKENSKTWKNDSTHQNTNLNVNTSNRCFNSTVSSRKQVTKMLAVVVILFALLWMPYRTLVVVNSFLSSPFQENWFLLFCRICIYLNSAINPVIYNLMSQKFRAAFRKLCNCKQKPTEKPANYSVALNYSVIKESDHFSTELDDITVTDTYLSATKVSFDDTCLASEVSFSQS
Experimental: Biological and Pharmacological Methods 1. Ca^2+ Flux Assays for the GPCRs Oxytocin Receptor (OT Receptor), Thyrotropin-Releasing Hormone Receptor (TRH Receptor) and Bombesin Receptor Subtype 3 (BB3 Receptor)
Assays were performed on a FLIPR^TETRA fluorometric imaging plate reader (Molecular Devices) with ScreenWorks Version 2 (Molecular Devices) as device operating and data analysis software.
Dose dependent agonist and antagonist activities were determined. Percentage activation and percentage inhibition values were determined.
Percentage activation was determined upon initial addition of the sample compounds followed by 10 minutes' incubation at 25° C. Following compound incubation, reference agonists were added at EC80 to determine percentage inhibition.
Reference agonists were purchased from reputable commercial vendors and prepared according to each ligand's specifications. All handling of ligands were done to ensure proper control throughout the experiments.
Example compounds were weighed on a Microbalance (Mettler MX5) and dissolved in 100% DMSO to a final concentration of 2.5 mM and subsequently diluted into the assay buffer.
The assay buffer was a supplemented HBSS (Hank's Balanced Salt Solution). HBSS was supplemented with 20 mM HEPES (4-(2-hydroxyethyl)-piperazin-1-ethansulfonic acid) and 2.5 mM Probenecid (Sigma P8761).
GPCR assays were performed using Ca^2+ optimized hematopoietic cell lines (rat) with cultures never exceeding 90% confluency. Cells were harvested and seeded (from cultures at less than 90% confluency) at 50000 cells/well for a 96-well plate (12500 cells/well for 384). After seeding, the assay plates were incubated for 45 minutes at room temperature. After room temperature incubation, the assay plates were incubated at 37° C. 5% CO2 for 24 hours prior to assaying.
All GPCR assays were performed using Fluo-8 Ca^2+ dye.
Ca^2+ dye was prepared at 1× dye concentration in GPCR assay buffer. After 24 hours of incubation, cells were washed with GPCR assay buffer, and then Ca^2+-dye (100 μL/well) was added.
The plates were incubated for 90 minutes at 30° C. 5% CO2 prior to FLIPR assay.
Compound plates were prepared to add 50 μL/well during the agonist assay mode. During the FLIPR assay, 50 μL/well from the compound plate was diluted 3-fold into the existing 100 μL/well from the dye loading step. Therefore all compounds were prepared as 3× the final concentration desired in the assay.
After completion of the first single addition assay run, assay plate was removed from the FLIPR Tetra and placed at 25° C. for 7 minutes before antagonist assay.
Using the EC80 values determined during the agonist assay, all pre-incubated sample compound and reference antagonist (if applicable) wells were stimulated at the EC80 of the reference agonist. As reference ligands for these assays their obvious natural ligands oxytocin (OT), thyrotropin-releasing hormone (TRH) and bombesin (6-14) [BN(6-14)] were used.
After the addition of the reference agonist fluorescence was monitored for 180 sec using FLIPR Tetra.
From the FLIPR data, with negative control correction enabled, the maximum statistic for each well was exported and percentage activation relative to Emax control was calculated.

[2] = biological target: T2, human leukotriene B4 receptor (LTB4R) (Homo sapiens, UniProt Q15722); test: Human LTB4 receptor cell-based assay (CHO mito-i-Photina, flash luminescence); details: antagonist mode
T2 construct: host or cells: CHO mito-i-Photina cells
T2 sequence (Q15722 whole entry): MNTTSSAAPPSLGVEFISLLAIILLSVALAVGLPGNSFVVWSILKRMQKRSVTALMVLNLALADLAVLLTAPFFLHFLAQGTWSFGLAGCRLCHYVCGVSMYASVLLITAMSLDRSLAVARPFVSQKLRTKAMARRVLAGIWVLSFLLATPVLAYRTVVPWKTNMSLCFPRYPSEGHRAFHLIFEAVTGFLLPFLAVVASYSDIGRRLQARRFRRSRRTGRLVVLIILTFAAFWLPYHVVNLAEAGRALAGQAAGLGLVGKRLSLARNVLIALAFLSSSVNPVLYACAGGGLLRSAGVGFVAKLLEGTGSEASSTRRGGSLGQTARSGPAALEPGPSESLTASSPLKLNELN
Description: 3. Human LTB4 Receptor Cell-Based Assay
CHO mito-i-Photina® cells (Axxam SpA) stably expressing the human leukotriene B4 receptor (LTB4R) were used for monitoring activation of the target LTB4R, a GPCR (Gαq), by measuring the flash luminescence of Ca^2+ sensitive photoprotein as reporter system with FLIPR^TETRA screening instrumentation (Molecular Devices) upgraded with an ICCD Camera (MDC). For data quality check and data analysis a Genedata Screener 10.0.3 was used, and for curve fitting of reference agonist and antagonist GraphPad Prism Software.
The reference agonist LTB4 and antagonist U-75302 were purchased from reputable commercial vendors and prepared according to each ligand's specifications. All handling of ligands were done to ensure proper control throughout the experiments.
The steps of the implemented workflow and data analysis are mainly as follows:
mito-1-Photina cells are seeded (10000 c/w in 384 MTP; in complete medium 25 μL/well) for 24 hours, removed from the incubator, equilibrated at room temperature for 1 h, freed from the growth medium, loaded with 30 μL/well of Tyrode's buffer containing 10 μM coelenterazine, and incubated for 3 hours at rt.
All compounds were tested at 10 μM with triplicate data points.
After incubation, the volume in all the wells is flattened to 20 μL by aspiration with CyBi®-Vario pipettor. The First Injection (10 μL of test compounds or reference antagonist U-75302 in Tyrode's buffer+DMSO 0.5%) is performed by the FLIPR^TETRA and the kinetic response is monitored over a period of 120 seconds. Incubation at rt for 10 min. is followed by the Second Injection (15 μL of LTB4 at EC80 in Tyrode's buffer) and monitoring of the kinetic response over a period of 120 seconds.
The possible kinetic response is divided into two distinct phases: Monitoring the kinetic response after the First Injection is indicated as Compound Addition (CA) and measures the agonistic activity of compounds; monitoring the kinetic response after the Second Injection is indicated as Target Activation (TA) and measures the antagonistic activity of a compound.
The activity determination (IC50 determination) experiment is performed using LTB4 as agonist (100 nM corresponding to EC80). Selected compound are tested in 8 doses intraplate dose response with quadruplicate data points.

[3] = Metabolic stability assay, CD-1 mouse microsomes; format: in vitro ADME; details: CD-1 mouse microsomes, 10 μM, 37° C.
In short: (§1)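 Pooled human (50 donors, mixed gender) or CD-1 mouse microsomes at 1 mg/mL protein, 10 μM compound, 100 mM potassium phosphate with NADPH-regenerating system, 37 °C in duplicate. Samples at 0, 5, 10, 20, 60 min analysed by HPLC/MS/MS; turnover as % of 0-min value and T½ (min) calculated.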

[4] = Metabolic stability assay, human liver microsomes; format: in vitro ADME; details: human microsomes, 10 μM, 37° C.
In short: as §1

[5] = Plasma stability assay, human plasma; format: in vitro ADME
In short: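 Compounds at 10 μM were incubated at 37 °C in triplicate in sodium citrate-stabilized plasma (human, or pooled mixed-gender CD-1 mouse). Samples taken at 0–240 min were acetonitrile-quenched and analyzed by HPLC/MS/MS. Remaining peak area as % of t0 gave endpoint stability (%) and half-life (min).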

Row | SMILES | inhibition at 10 µM [1] | IC50 [2] | inhibition at 10 µM [2] | further results
1 | O=C(CN1CCCC1)N[C@H]1C[C@H]2COc3cccc(c3)-c3ccccc3C(=O)NCC[C@@H](NC(=O)Cc3cccc4ccccc34)C(=O)N2C1 [Ex. 7, N-[(12R,16S,18S)-8,13-dioxo-16-{[2-(1-pyrrolidinyl)acetyl]amino}-20-oxa-9,14-diazatetracyclo[19.3.1.0^2,7.0^14,18]pentacosa-1(25),2,4,6,21,23-hexaen-12-yl]-2-(1-naphthyl)acetamide] | 91% |  |  | IC50 [1]: 1.4 µM
2 | O=C(N[C@@H]1CCNC(=O)c2ccccc2-c2cccc(c2)OC[C@@H]2C[C@H](NC(=O)Oc3ccccc3)CN2C1=O)OCc1ccccc1 [Ex. 14] |  | 39.4 µM | 46% | 
3 | COc1ccc2c(c1)-c1cccc(c1)C(=O)N(C)[C@H](C(=O)NCc1cccnc1)CCC(=O)N[C@H](C)CO2 [Ex. 50, (10R,15S)-4-methoxy-10,16-dimethyl-12,17-dioxo-N-(3-pyridinylmethyl)-8-oxa-11,16-diazatricyclo[16.3.1.0^2,7]docosa-1(22),2,4,6,18,20-hexaene-15-carboxamide] |  | 1.97 µM | 100% | Metabolic Stability 60 min mouse/(rat) [% remain.] ([3]; 60 min): 34 % remain.; half-life at 10 μM ([3]; both sexes, 1 mg/ml protein, read-out: Metabolic Stability T ½ [min] mouse/(rat)): 40 min; half-life at 10 μM ([4]; both sexes, liver microsomes, 1 mg/ml protein, read-out: Metabolic Stability T ½ [min] hum): > 60 min; Metabolic Stability 60 min hum [% remain.] ([4]; 60 min): 53 % remain.; Plasma Stability 240 min hum [% remain.] ([5]; human plasma, 240 min, 10 μM, 37° C.): 100 % remain.; half-life at 10 μM ([5]; human, plasma): > 240 min
4 | C[C@@H]1COc2cccc(c2)-c2ccccc2SCCCC[C@H](N)C(=O)N1 [Ex. 116, (13S,16R)-13-amino-16-methyl-18-oxa-8-thia-15-azatricyclo[17.3.1.0^2,7]tricosa-1(23),2,4,6,19,21-hexaen-14-one] |  | 15.4 µM | 49% | 
5 | C[C@@H]1COc2cccc(c2)-c2ccccc2SCCCC[C@H](NC(=O)CN2CCCC2)C(=O)N1 [Ex. 119, N-[(13S,16R)-16-methyl-14-oxo-18-oxa-8-thia-15-azatricyclo[17.3.1.0^2,7]tricosa-1(23),2,4,6,19,21-hexaen-13-yl]-2-(1-pyrrolidinyl)acetamide] |  | 14.2 µM | 47% | 
6 | C[C@@H]1COc2ccccc2-c2cncc(c2)SCCCC[C@H](N)C(=O)N1 [Ex. 144, (10R,13S)-13-amino-10-methyl-8-oxa-18-thia-11,21-diazatricyclo[17.3.1.0^2,7]tricosa-1(23),2,4,6,19,21-hexaen-12-one] |  | 40.9 µM | 41% | 
7 | O=C(Cn1ccnc1)N[C@H]1C[C@H]2COc3cccc(c3)-c3ccccc3C(=O)NCC[C@@H](NC(=O)Cc3cccc4ccccc34)C(=O)N2C1 [Ex. 332, 2-(1H-imidazol-1-yl)-N-[(12R,16S,18S)-12-{[2-(1-naphthyl)acetyl]amino}-8,13-dioxo-20-oxa-9,14-diazatetracyclo[19.3.1.0^2,7.0^14,18]pentacosa-1(25),2,4,6,21,23-hexaen-16-yl]acetamide] | 29% |  |  | 
8 | O=C(Cc1cccc2ccccc12)N[C@@H]1CCNC(=O)c2ccccc2-c2cccc(c2)OC[C@@H]2C[C@H](NC(=O)Nc3cccnc3)CN2C1=O [Ex. 333, N-[(12R,16S,18S)-8,13-dioxo-16-{[(3-pyridinylamino)carbonyl]amino}-20-oxa-9,14-diazatetracyclo[19.3.1.0^2,7.0^14,18]pentacosa-1(25),2,4,6,21,23-hexaen-12-yl]-2-(1-naphthyl)acetamide] | 35% |  |  | 
9 | O=C(CN1CCCC1)N[C@H]1C[C@H]2COc3cccc(c3)-c3ccccc3C(=O)NCC[C@@H](NC(=O)Cc3cccc(Cl)c3)C(=O)N2C1 [Ex. 334, 2-(3-chlorophenyl)-N-[(12R,16S,18S)-8,13-dioxo-16-{[2-(1-pyrrolidinyl)acetyl]amino}-20-oxa-9,14-diazatetracyclo[19.3.1.0^2,7.0^14,18]pentacosa-1(25),2,4,6,21,23-hexaen-12-yl]acetamide] | 40% |  |  | 
10 | O=C(CN1CCCC1)N[C@H]1C[C@H]2COc3cccc(c3)-c3ccccc3C(=O)NCC[C@@H](NC(=O)CC3CCCCC3)C(=O)N2C1 [Ex. 335, 2-cyclohexyl-N-[(12R,16S,18S)-8,13-dioxo-16-{[2-(1-pyrrolidinyl)acetyl]amino}-20-oxa-9,14-diazatetracyclo[19.3.1.0^2,7.0^14,18]pentacosa-1(25),2,4,6,21,23-hexaen-12-yl]acetamide] | 34% |  |  | 
11 | O=C(CN1CCCC1)N[C@H]1C[C@H]2COc3cccc(c3)-c3ccccc3C(=O)NCC[C@@H](NC(=O)Nc3cccc4ccccc34)C(=O)N2C1 [Ex. 336, N-[(12R,16S,18S)-12-{[(1-naphthylamino)carbonyl]amino}-8,13-dioxo-20-oxa-9,14-diazatetracyclo[19.3.1.0^2,7.0^14,18]pentacosa-1(25),2,4,6,21,23-hexaen-16-yl]-2-(1-pyrrolidinyl)acetamide] | 48% |  |  | IC50 [1]: 8.2 µM
